“And” between values parts separate entries of the source, which are not always exact repeats. Equal values may be shown once. Read-outs that look alike come from different tables or passages of the source.

From patent US4668672A, “Feed compositions containing pyridylalkylhydrazides” (SmithKline Beckman Corporation, priority 1985, dated 1987) come the findings set out here.

The nature of one assay: Chick growth study. The class given is in vivo, broiler chicks. Conditions: for response vs control in vivo at 50 ppm / response vs control in vivo at 40 ppm / response vs control in vivo at 49 ppm / response vs control in vivo at 10 ppm: Gallus gallus, feed or water, 408 h; for response vs control in vivo at 50 ppm: 50 ppm in feed; for feed conversion / weight gain: chickens; for response vs control in vivo at 40 ppm: 40 ppm in feed; for response vs control in vivo at 49 ppm: 49 ppm in feed; for response vs control in vivo at 10 ppm: 10 ppm in feed. The procedure:
512 Day old broiler chicks, selected for weight, health and sex, are housed in an environmentally controlled room with temperature at 37.7° and humidity at 40%. Chicks are fed ad libitum. Water is offered ad libitum. A corn or, preferably, rye basal ration is fed during the acclimation period (days 1 and 2), then, mixed with the compound under test or used as a control on days 3-17. Either 8 or 16 chicks are used for each test or control group.

Assay [1] concerns swine ileal or cecal inoculum (filtrate of cannula material). The assay is described as follows: In vitro swine procedure (incubation of inoculum from cannulated swine, in vitro fistula procedure). Further details: species or system swine (Yorksire barrow).
The mark [2] stands for this setting: days 3-17, read-out: Feed Gain (3-17 day).
[3] abbreviates: days 3-17, read-out: Weight (17 day).
Setting [4] is: 166.67 ppm, 5 hours at 37°, blank control = 100%.
The mark [5] stands for this setting: 1.67 ppm, 5 hours at 37°, blank control = 100%.
[6] abbreviates: 16.67 ppm, 5 hours at 37°, blank control = 100%.
The mark [7] stands for this setting: 116.67 ppm, 5 hours at 37°, blank control = 100%.
Setting [8] is: 50.0 (unit not given) in feed, days 3-17.

Take `COC(=O)NN=Cc1ccccn1` [drawing 12]: the response vs control in vivo at 50 ppm was found to be 86.4% in “Chick growth study” (setting [2]) and 119% in the assay “Chick growth study” (setting [3]).

For `CC(=NNC(=S)N1CC2CCC(CC2)C1)c1ccccn1` [drawing 6], the “VFA (total of volatile fatty acids)” value in assay [1] is recorded as 97 % of Control Values. In assay [1] (setting [4]), the “LYS (lysine)” value is reported as 107 % of Control Values.

Turning to `COC(=O)NN=C(C)c1ccccn1` [drawing 3], the entries for the “LYS (lysine)” value in assay [1] (setting [5]), in assay [1] (setting [6]) and in assay [1] (setting [4]) were 70 % of Control Values, 134 % of Control Values and 99 % of Control Values, respectively. Moreover, the figures for the “VFA (total of volatile fatty acids)” value in assay [1] (setting [6]) and in assay [1] (setting [4]) were 94 % of Control Values and 88 % of Control Values, respectively.

As for Virginiamycin [reference compound], the “GLU (glucose)” value in assay [1] was 190 % of Control Values. Besides, in assay [1] (setting [7]), the “LAC (L lactic acid)” value is reported as 17 % of Control Values, the “LYS (lysine)” value is reported as 171 % of Control Values and the “VFA (total of volatile fatty acids)” value was 25 % of Control Values. Also, in “Chick growth study” (setting [8]), the “Feed Gain (3-17 day)” value is reported as 85.0 % of Control and the “Weight (17 day)” value is recorded as 118.9 % of Control.

For the molecule `COC(=O)NN=Cc1cccnc1`, the results for the response vs control in vivo at 50 ppm in “Chick growth study” (setting [2]) and in “Chick growth study” (setting [3]) were 102% and 98.4%, respectively.

With “3-azabicyclo[3.2.2]nonane-3-carbothioic acid 2-[1-(2-pyridyl)ethyl]hydrazide”, in the assay “Chick growth study” (fed at 50 ppm), the feed conversion entry is “better feed conversion” and the weight gain entry is recorded as “increased weight gain”.

As to `COC(=O)NN=Cc1ccncc1`, the response vs control in vivo at 40 ppm in “Chick growth study” (setting [2]) came to 102%; in the assay “Chick growth study” (setting [3]), 96.9%.

For `CC(=NNC(=S)N1CC2CCC(CC2)C1)c1ccccn1` [drawing 15], the figures for the response vs control in vivo at 49 ppm in the assay “Chick growth study” (setting [2]) and in “Chick growth study” (setting [3]) were 84.1% and 102%, respectively.

Consider `CC(=NNC(=S)N1CCCCC1)c1ccccn1` [drawing 2], for which, in assay [1] (setting [4]), the “LYS (lysine)” value was 23 % of Control Values and 18 % of Control Values; the “VFA (total of volatile fatty acids)” value is given as 63 % of Control Values.

Regarding `COC(=O)NN=C(C)c1ccccn1` [drawing 13], the response vs control in vivo at 50 ppm in “Chick growth study” (setting [2]) amounted to 94%; in the assay “Chick growth study” (setting [3]), 110%.

Turning to `CC(=NNC(=S)N1CCCCCC1)c1ccccn1` [hexahydro-1H-azepine-1-carbothioic acid [1-(2-pyridinyl)-ethylidinyl]hydrazide], in “Chick growth study” (fed at 10 and 50 ppm), the feed conversion entry is reported as “better feed conversion” and the weight gain result is “increased weight gain”.

As to `CC(=NNC(=S)N1CCCCC1)c1ccccn1` [drawing 9], in “Chick growth study” (setting [2]), the response vs control in vivo at 10 ppm amounted to 92.3% and the response vs control in vivo at 50 ppm turned out to be 80.6%. In “Chick growth study” (setting [3]), the response vs control in vivo at 10 ppm is 110% and the response vs control in vivo at 50 ppm was 103%.

As to `CC(=NNC(N)=S)c1ccccn1` [drawing 5], in assay [1] (setting [4]), the “GLU (glucose)” value is 147 % of Control Values, the “LAC (L lactic acid)” value was 88 % of Control Values, the “LYS (lysine)” value was 137 % of Control Values and the “VFA (total of volatile fatty acids)” value was 43 % of Control Values.

In the case of `CC(=NNC(=S)N1CC2CCC(CC2)C1)c1ccccn1` [drawing 8], the results for the response vs control in vivo at 50 ppm in the assay “Chick growth study” (setting [2]) and in “Chick growth study” (setting [3]) were 80.6% and 103%, respectively.

On to `COC(=O)NN=Cc1ccccn1` [drawing 4], for which the “LYS (lysine)” value in assay [1] (setting [5]) is given as 65 % of Control Values; in assay [1] (setting [6]) it was 140 % of Control Values; in assay [1] (setting [4]), 109 % of Control Values. The figures for the “VFA (total of volatile fatty acids)” value in assay [1] (setting [5]), in assay [1] (setting [6]) and in assay [1] (setting [4]) were 90 % of Control Values, 104 % of Control Values and 109 % of Control Values, respectively.

Take `CC(=NNC(=S)N1CCCCCC1)c1ccccn1` [Compound 10]: the response vs control in vivo at 10 ppm was determined as 92.3% in the assay “Chick growth study” (setting [2]) and 110% in “Chick growth study” (setting [3]). The response vs control in vivo at 50 ppm in the assay “Chick growth study” (setting [2]) was found to be 80.6%; in “Chick growth study” (setting [3]) it was 103%.

`CSC(=S)NN=C(C)c1ccccn1` [drawing 7]: in assay [1] (setting [4]), the “GLU (glucose)” value is listed as 95 % of Control Values, the “LAC (L lactic acid)” value is recorded as 113 % of Control Values, the “LYS (lysine)” value was 103 % of Control Values and the “VFA (total of volatile fatty acids)” value was 89 % of Control Values.

In the case of `CC(=NNC(N)=S)c1ccccn1` [drawing 14], the response vs control in vivo at 50 ppm was 91.2% in “Chick growth study” (setting [2]) and 107% in the assay “Chick growth study” (setting [3]).

Regarding `CSC(=S)NN=C(C)c1ccccn1` [drawing 16], the response vs control in vivo at 40 ppm in the assay “Chick growth study” (setting [2]) was 86.6%; in the assay “Chick growth study” (setting [3]) it was 72.8%.
